Laboratory results reported in patent US10104889B2 (priority 2011, dated 2018).

System: Candidatus ‘Liberibacter asiaticus’
Format: in vivo
Settings: 1 μM, all tested variants, monthly until sixth month, FIG. 6

## C[C@@H]1CC[C@@]2(OC1)O[C@H]1C[C@H]3[C@@H]4CC[C@H]5CC(O)CC[C@]5(C)[C@H]4OC(=O)C[C@]3(C)[C@H]1[C@@H]2C (stereo partly drawn) [brassinosteroid analogue, (25R)-3-hydroxy-C-homo-11-oxa-5-espirostan-12-one]
  bacterial reduction at application frequencies 1, 2 and 4 times per month: bacterial reduction was observed
